Key:
MCF10A cells = conditions: high concentrations
[1] = test system: RPTEC (renal proximal tubule epithelial cells); assay: cells; conditions: Homo sapiens, read-out: IC50 cell viability
[2] = target: ABL1(F317I)-nonphosphorylated (Homo sapiens, UniProt P00519, F317I); assay: biochemical; conditions: read-out: %Ctrl @ 2000nM
[3] = target: ABL1(F317L)-nonphosphorylated (Homo sapiens, UniProt P00519, F317L); assay: biochemical; conditions: read-out: %Ctrl @ 2000nM
ACVR2A = ACVR2A (Homo sapiens, UniProt P27037); assay: biochemical; conditions: read-out: %Ctrl @ 2000nM
BMPR2 = BMPR2 (Homo sapiens, UniProt Q13873); assay: biochemical; conditions: read-out: %Ctrl @ 2000nM
Chain of BMPR2 (Q13873 27-1038): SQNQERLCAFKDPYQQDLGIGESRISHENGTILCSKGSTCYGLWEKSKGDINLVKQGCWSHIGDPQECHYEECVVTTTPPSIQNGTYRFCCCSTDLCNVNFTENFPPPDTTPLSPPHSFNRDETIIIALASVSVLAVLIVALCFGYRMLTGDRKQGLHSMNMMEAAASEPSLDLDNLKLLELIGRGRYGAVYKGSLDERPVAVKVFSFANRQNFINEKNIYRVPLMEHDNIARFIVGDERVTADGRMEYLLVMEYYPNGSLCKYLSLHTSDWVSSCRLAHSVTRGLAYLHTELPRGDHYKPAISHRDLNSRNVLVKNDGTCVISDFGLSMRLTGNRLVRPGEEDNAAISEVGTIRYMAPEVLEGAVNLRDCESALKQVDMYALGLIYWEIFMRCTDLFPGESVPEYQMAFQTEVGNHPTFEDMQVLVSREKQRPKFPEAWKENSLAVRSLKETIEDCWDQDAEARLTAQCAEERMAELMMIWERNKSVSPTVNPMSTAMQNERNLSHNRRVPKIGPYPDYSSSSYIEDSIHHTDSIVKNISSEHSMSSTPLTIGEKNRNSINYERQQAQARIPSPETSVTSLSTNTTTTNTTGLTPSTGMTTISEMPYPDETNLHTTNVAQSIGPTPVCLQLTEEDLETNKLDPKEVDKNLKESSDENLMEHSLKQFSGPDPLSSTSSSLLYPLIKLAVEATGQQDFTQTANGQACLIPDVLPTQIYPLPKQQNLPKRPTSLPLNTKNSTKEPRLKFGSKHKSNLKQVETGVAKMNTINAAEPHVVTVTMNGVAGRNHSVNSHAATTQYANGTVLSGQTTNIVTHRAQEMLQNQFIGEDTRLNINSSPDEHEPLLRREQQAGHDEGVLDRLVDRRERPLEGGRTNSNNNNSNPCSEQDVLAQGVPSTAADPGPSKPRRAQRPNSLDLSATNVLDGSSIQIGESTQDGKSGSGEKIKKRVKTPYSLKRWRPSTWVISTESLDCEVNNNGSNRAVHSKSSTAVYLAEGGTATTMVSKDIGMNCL

BRK = BRK (Homo sapiens, UniProt Q13882); assay: biochemical; conditions: read-out: %Ctrl @ 2000nM
BTK = BTK (Homo sapiens, UniProt Q06187); assay: biochemical; conditions: read-out: %Ctrl @ 2000nM
CAMK1D = CAMK1D (Homo sapiens, UniProt Q8IU85); assay: biochemical; conditions: read-out: %Ctrl @ 2000nM
Chain of CAMK1D (Q8IU85 whole entry): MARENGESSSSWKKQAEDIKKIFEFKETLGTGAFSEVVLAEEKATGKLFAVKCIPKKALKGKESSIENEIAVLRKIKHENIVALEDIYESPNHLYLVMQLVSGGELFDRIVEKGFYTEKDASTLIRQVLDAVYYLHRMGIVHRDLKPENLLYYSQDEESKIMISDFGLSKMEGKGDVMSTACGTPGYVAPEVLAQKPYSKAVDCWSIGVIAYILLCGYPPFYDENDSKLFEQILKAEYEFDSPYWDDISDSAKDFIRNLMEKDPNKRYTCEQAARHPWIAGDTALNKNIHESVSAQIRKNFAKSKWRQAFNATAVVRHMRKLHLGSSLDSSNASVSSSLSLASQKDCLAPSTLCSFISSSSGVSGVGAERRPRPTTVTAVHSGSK

CSNK1G1 = CSNK1G1 (Homo sapiens, UniProt Q9HCP0); assay: biochemical; conditions: read-out: %Ctrl @ 2000nM
Chain of CSNK1G1 (Q9HCP0 whole entry): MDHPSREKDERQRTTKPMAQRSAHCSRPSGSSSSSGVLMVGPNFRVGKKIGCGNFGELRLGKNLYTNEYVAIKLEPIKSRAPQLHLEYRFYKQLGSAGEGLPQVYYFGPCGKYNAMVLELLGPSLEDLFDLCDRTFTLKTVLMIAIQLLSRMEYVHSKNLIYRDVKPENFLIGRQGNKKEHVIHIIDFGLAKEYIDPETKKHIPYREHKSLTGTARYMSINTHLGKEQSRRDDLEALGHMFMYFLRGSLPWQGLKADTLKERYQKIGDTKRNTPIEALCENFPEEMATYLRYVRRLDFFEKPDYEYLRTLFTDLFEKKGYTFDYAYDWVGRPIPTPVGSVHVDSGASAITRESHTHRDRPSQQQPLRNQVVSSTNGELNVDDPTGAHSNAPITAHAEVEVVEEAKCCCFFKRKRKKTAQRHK

DDR1 = DDR1 (Homo sapiens, UniProt Q08345); assay: biochemical; conditions: read-out: %Ctrl @ 2000nM
Chain of DDR1 (Q08345 19-913): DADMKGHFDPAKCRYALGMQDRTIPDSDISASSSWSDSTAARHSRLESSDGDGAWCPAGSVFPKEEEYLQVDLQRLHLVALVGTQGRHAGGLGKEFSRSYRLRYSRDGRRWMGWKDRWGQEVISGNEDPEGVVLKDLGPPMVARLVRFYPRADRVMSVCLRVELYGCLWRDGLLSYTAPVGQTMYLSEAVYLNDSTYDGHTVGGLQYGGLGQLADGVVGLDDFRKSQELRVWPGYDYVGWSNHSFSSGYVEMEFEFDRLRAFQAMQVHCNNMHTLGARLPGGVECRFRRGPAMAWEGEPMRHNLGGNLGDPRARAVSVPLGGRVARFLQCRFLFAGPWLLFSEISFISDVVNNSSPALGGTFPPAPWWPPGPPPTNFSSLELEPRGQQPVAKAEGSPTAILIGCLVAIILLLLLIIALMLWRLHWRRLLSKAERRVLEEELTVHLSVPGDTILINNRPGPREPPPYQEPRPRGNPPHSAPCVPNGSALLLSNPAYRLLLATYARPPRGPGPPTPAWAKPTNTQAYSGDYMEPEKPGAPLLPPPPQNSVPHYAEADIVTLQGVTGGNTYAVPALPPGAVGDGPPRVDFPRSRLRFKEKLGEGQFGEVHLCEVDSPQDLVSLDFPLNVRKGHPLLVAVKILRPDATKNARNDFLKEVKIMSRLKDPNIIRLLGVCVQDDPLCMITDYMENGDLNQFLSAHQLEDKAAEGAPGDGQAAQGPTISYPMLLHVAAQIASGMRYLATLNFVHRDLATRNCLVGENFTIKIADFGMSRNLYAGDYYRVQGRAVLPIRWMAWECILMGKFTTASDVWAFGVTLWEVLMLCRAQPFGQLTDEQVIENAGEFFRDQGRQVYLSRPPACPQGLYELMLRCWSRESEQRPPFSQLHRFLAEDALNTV

DMPK2 = DMPK2 (Homo sapiens, UniProt Q6DT37); assay: biochemical; conditions: read-out: %Ctrl @ 2000nM
DYRK1B = DYRK1B (Homo sapiens, UniProt Q9Y463); assay: biochemical; conditions: read-out: %Ctrl @ 2000nM
EGFR(G719C) = EGFR(G719C) (Homo sapiens, UniProt P00533, G719C); assay: biochemical; conditions: read-out: %Ctrl @ 2000nM
FLT3(D835H) = FLT3(D835H) (Homo sapiens, UniProt P36888, D835H); assay: biochemical; conditions: read-out: %Ctrl @ 2000nM
ICK = ICK (Homo sapiens, UniProt Q9UPZ9); assay: biochemical; conditions: read-out: %Ctrl @ 2000nM
JNK2 = JNK2 (Homo sapiens, UniProt P45984); assay: biochemical; conditions: read-out: %Ctrl @ 2000nM
MEK1 = MEK1 (Homo sapiens, UniProt Q02750); assay: biochemical; conditions: read-out: %Ctrl @ 2000nM
MYLK4 = MYLK4 (Homo sapiens, UniProt Q86YV6); assay: biochemical; conditions: read-out: %Ctrl @ 2000nM
NEK1 = NEK1 (Homo sapiens, UniProt Q96PY6); assay: biochemical; conditions: read-out: %Ctrl @ 2000nM
PCTK2 = PCTK2 (Homo sapiens, UniProt Q00537); assay: biochemical; conditions: read-out: %Ctrl @ 2000nM
Chain of PCTK2 (Q00537 whole entry): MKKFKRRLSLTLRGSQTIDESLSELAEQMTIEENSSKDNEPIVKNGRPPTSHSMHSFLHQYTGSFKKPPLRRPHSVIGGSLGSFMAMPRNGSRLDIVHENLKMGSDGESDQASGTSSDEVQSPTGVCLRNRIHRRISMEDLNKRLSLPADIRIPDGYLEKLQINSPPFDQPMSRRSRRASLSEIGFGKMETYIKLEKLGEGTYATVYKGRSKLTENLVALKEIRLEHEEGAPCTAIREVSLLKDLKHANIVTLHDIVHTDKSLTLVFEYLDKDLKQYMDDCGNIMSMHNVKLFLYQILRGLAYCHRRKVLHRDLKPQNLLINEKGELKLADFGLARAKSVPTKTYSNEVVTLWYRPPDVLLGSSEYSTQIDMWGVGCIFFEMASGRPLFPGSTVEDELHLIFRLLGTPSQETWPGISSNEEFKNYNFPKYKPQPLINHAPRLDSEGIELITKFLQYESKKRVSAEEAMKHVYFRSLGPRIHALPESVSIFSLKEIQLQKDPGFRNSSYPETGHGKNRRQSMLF

PIK3C2G = PIK3C2G (Homo sapiens, UniProt O75747); assay: biochemical; conditions: read-out: %Ctrl @ 2000nM
PRKCD = PRKCD (Homo sapiens, UniProt Q05655); assay: biochemical; conditions: read-out: %Ctrl @ 2000nM
[4] = target: RSK1(Kin.Dom.1-N-terminal) (Homo sapiens, UniProt Q15418); assay: biochemical; conditions: read-out: %Ctrl @ 2000nM
TESK1 = TESK1 (Homo sapiens, UniProt Q15569); assay: biochemical; conditions: read-out: %Ctrl @ 2000nM
TGFBR1 = TGFBR1 (Homo sapiens, UniProt P36897); assay: biochemical; conditions: read-out: %Ctrl @ 2000nM
TRPM6 = TRPM6 (Homo sapiens, UniProt Q9BX84); assay: biochemical; conditions: read-out: %Ctrl @ 2000nM
TSSK1B = TSSK1B (Homo sapiens, UniProt Q9BXA7); assay: biochemical; conditions: read-out: %Ctrl @ 2000nM
ULK2 = ULK2 (Homo sapiens, UniProt Q8IYT8); assay: biochemical; conditions: read-out: %Ctrl @ 2000nM
VPS34 = VPS34 (Homo sapiens, UniProt Q8NEB9); assay: biochemical; conditions: read-out: %Ctrl @ 2000nM
YANK2 = YANK2 (Homo sapiens, UniProt Q9NY57); assay: biochemical; conditions: read-out: %Ctrl @ 2000nM
Chain of YANK2 (Q9NY57 whole entry): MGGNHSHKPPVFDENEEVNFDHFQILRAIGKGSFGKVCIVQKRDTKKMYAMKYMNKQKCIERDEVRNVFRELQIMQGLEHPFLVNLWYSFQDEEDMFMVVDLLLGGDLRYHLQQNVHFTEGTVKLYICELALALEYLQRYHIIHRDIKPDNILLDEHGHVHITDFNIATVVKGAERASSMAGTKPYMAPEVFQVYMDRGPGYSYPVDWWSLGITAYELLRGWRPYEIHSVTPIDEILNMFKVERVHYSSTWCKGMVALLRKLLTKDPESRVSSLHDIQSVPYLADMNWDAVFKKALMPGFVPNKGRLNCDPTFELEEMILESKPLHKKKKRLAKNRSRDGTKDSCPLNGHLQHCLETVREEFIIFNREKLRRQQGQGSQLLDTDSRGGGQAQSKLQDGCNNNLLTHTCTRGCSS

Chain of ABL1(F317L)-nonphosphorylated (P00519 whole entry F317L): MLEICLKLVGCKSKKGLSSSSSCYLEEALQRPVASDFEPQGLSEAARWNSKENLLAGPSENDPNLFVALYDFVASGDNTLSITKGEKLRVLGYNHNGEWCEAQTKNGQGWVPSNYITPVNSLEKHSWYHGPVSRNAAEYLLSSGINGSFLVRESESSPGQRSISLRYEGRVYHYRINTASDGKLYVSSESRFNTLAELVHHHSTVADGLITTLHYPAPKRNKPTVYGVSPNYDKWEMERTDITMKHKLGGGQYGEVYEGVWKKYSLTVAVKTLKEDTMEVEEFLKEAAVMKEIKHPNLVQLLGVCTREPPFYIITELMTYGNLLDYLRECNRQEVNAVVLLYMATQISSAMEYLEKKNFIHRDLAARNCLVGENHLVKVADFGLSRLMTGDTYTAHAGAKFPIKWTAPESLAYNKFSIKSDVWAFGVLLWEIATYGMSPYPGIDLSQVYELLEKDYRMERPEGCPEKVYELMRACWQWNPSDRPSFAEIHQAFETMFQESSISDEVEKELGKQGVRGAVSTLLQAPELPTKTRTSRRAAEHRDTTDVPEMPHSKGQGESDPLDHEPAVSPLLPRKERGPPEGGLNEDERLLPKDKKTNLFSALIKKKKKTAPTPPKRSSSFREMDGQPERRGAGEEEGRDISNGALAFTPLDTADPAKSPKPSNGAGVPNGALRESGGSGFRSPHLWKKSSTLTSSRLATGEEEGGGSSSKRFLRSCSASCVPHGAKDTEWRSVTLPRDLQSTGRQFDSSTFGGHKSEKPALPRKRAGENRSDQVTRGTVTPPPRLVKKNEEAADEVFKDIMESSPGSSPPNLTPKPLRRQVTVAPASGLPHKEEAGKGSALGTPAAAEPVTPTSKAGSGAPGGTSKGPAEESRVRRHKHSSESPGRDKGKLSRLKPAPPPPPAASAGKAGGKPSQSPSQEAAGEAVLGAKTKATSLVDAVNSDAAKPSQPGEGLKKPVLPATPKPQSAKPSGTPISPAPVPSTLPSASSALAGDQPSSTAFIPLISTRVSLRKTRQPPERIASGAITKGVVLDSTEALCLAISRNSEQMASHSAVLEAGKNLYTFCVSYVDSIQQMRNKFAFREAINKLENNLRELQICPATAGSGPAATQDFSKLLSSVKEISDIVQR
Chain of ABL1(F317I)-nonphosphorylated (P00519 whole entry F317I): as the sequence (P00519 whole entry F317L) above, with L317I counted along it

SMILES: CC(C)COC(=O)c1[nH]c2ccc(F)cc2c1-c1cn(CC2CCN(CCNS(=O)(=O)c3ccc(CC(C)C)cc3)CC2)nn1 [AB668, isobutyl 5-fluoro-3-(1-((1-(2-((4-isobutylphenyl)sulfonamido)ethyl)piperidin-4-yl)methyl)-1H-1,2,3-triazol-4-yl)-1H-indole-2-carboxylate]
- cytotoxicity (MCF10A cells): no cytotoxicity
- IC50 [1]: > 100 µM
- remaining activity at 2 µM [2]: 79%
- remaining activity at 2 µM [3]: 88%
- remaining activity at 2 µM (ACVR2A): 95%
- remaining activity at 2 µM (BMPR2): 100%
- remaining activity at 2 µM (BRK): 72%
- remaining activity at 2 µM (BTK): 100%
- remaining activity at 2 µM (CAMK1D): 96%
- remaining activity at 2 µM (CSNK1G1): 90%
- remaining activity at 2 µM (DDR1): 96%
- remaining activity at 2 µM (DMPK2): 85%
- remaining activity at 2 µM (DYRK1B): 83%
- remaining activity at 2 µM (EGFR(G719C)): 83%
- remaining activity at 2 µM (FLT3(D835H)): 89%
- remaining activity at 2 µM (ICK): 100%
- remaining activity at 2 µM (JNK2): 92%
- remaining activity at 2 µM (MEK1): 97%
- remaining activity at 2 µM (MYLK4): 100%
- remaining activity at 2 µM (NEK1): 73%
- remaining activity at 2 µM (PCTK2): 96%
- remaining activity at 2 µM (PIK3C2G): 100%
- remaining activity at 2 µM (PRKCD): 91%
- remaining activity at 2 µM [4]: 100%
- remaining activity at 2 µM (TESK1): 95%
- remaining activity at 2 µM (TGFBR1): 84%
- remaining activity at 2 µM (TRPM6): 81%
- remaining activity at 2 µM (TSSK1B): 91%
- remaining activity at 2 µM (ULK2): 100%
- remaining activity at 2 µM (VPS34): 100%
- remaining activity at 2 µM (YANK2): 76%

Source: PMC10838953
